Assay results published in patent US4730069A, “Cis-platinum complexes with a pentaerythritol derivative as the ligand, a process for their preparation and a pharmaceutical agent containing these compounds” (Behringwerke Aktiengesellschaft, priority 1984, dated 1988).

System: NMRI mice
Assay: Determination of the acute toxicity (NMRI mice, intravenous)
Format: in vivo
Details: intravenous on day 0, survival on day 14, which LD not stated
Method: To determine the acute toxicity, NMRI mice are injected intravenously on day 0 with different doses of the test substance, dissolved in 0.5 ml of physiological saline solution. Control groups receive only 0.5 ml of physiological saline solution. 5 mice are used per concentration of the test substance. On day 14, the number of surviving mice is determined and the LD5, LD50 and LD95 are determined therefrom by the Litchfield Wilcoxon method. The toxicity of the compounds described here is summarized in comparison with cisplatin in Table 1.

“5,5-Bis-(aminomethyl)-2-methyl-2-octadecyl-1,3-dioxane-platinum(II) hydroxide [Compound 57]” was tested, and the “Acute toxicity (LD5, LD50 and LD95 by the Litchfield Wilcoxon method) (Table 1, column c)” value was 3.4.
